3 compounds from publication PMC8821551, “Binding of cationic analogues of α-MSH to lipopolysaccharide and disruption of the cytoplasmic membranes caused bactericidal action against Escherichia coli” (Scientific Reports, 2022) can be followed below.

The Kd is the constant that tells how readily two partners part at equilibrium.

The test system of experiment [1] is E. coli ATCC 25922. The experiment can be described thus: Killing assay (killing kinetics), logarithmic phase cells. It counts as cell-based, Escherichia coli. To be noted: logarithmic phase, 10^5 CFU/mL; for log reduction in cell viability: HEPES-glucose buffer pH 7.4, 37 °C, average ± SE, three independent experiments, SEM; for killing activity (decrease in cell viability), in words: low concentrations 1 µM and 2 µM, up to 2 h. The protocol:
(§1) For this study, a well-characterized strain of E. coli (ATCC 25922) was used. The strain was stored at − 80 °C in 15% (v/v) glycerol until sub-cultured onto LB agar plates for use.
(§2) The antibacterial activity of α-MSH and its cationic analogues was determined against both logarithmic (2–3 h) and stationary (16–18 h) phase of E. coli cells in LB medium. The bacterial suspension was pelleted, washed, and diluted in HEPES-glucose buffer (5 mM HEPES, 20 mM glucose, pH 7.4) to adjust the cell density by measuring the OD = 0.5 (10^8 CFU/mL) at 600 nm using a spectrophotometer. This suspension was used to obtain the desired inoculum sizes (10^5 CFU/mL, 10^6 CFU/mL, and 10^7 CFU/mL). The inoculums were exposed to various concentrations of peptides (1 µM, 2 µM, 5 µM, and 10 µM) and incubated at 37 °C. Untreated E. coli cells were also included as a control. At selected time points (0 min, 15 min, 30 min, 60 min, and 120 min), aliquots were taken out, and survival of E. coli cells was determined by quantitative plating on LB agar after appropriate dilution in the same buffer. The plates were incubated overnight at 37 °C, followed by colony counting. Each experiment was performed at least three times on three independent days.

Experiment [2] concerns stationary phase E. coli cells. The experiment in a line: Killing assay, stationary phase cells. It counts as cell-based, Escherichia coli. To be noted: 10^5 CFU/mL, HEPES-glucose buffer, 37 °C, peptide 10 µM, 1 h, mean ± SE, three independent days, SEM. The protocol:
as §1, §2

The subject of experiment [3] is E. coli outer membrane. The experiment can be described thus: Outer membrane permeabilization assay (NPN uptake). Particulars: relative to 10 µM polymyxin B = 100%; for %NPN uptake: 10^8 CFU/mL mid-log cells, 10 μM NPN. It counts as cell-based, Escherichia coli. The method, then:
The outer membrane permeabilization assay was done as described in the literature with slight modifications. Briefly, bacterial cells were grown to mid-log phase in LB medium, washed and diluted to 10^8 CFU/mL in HEPES-glucose buffer. Next, this bacterial suspension was treated with 10 μM NPN probe and subsequently challenged with increasing concentrations of peptides (1 µM to 20 µM). Changes in the fluorescence intensity of NPN were measured with the help of Shimadzu RF-5301 PC spectrofluorimeter (excitation at 350 nm and emission at 420 nm). Increased intensity of emission resulted from the damage to the bacterial outer membrane and was measured until no further increase in fluorescence was observed. NPN uptake was calculated using the following formula: %NPNuptake=Fobs-F0/F100-F0×100 where Fobs is the NPN fluorescence intensity after the peptide treatment, F0 is the NPN fluorescence with untreated E. coli cells, and F100 is the NPN fluorescence in the presence of 10 µM polymyxin B (a positive control).

For experiment [4], the system named is dye-loaded E. coli cells. The experiment can be described thus: Viability of DiSC3(5) dye-loaded cells by plating. Particulars: dye-loaded cells 10^6, HEPES-glucose buffer, two different days. It counts as cell-based, Escherichia coli. The method, then:
The membrane depolarization of E. coli cells was determined using a potentiometric fluorescent probe DiSC3(5), as described elsewhere. Briefly, mid-log phase E. coli cells were diluted to 10^6 CFU/mL in the same HEPES-glucose buffer and were incubated with DiSC3(5) and EDTA at 0.4 µM and 0.2 mM concentrations, respectively, for 1 h in the dark at 37 °C, till the maximum uptake of the probe occurred. Increasing concentrations of the studied peptides from 1 µM to 10 µM were then added to these dye-loaded cells in a quartz cuvette, and the fluorescence intensity was measured on spectrofluorimeter (Shimadzu RF-5301 PC) set as excitation at 622 nm and emission at 670 nm. The increase in fluorescence intensity accounted for the dissipation of membrane potential caused due to peptide treatment. Cells treated with 10 µM melittin were used as a positive control. Simultaneously, the dye-loaded cells were plated onto LB agar to estimate bacterial cell death.
Figure S1: Survival of dye-loaded cells (10^6) treated with various concentrations of peptides that correspond to the inner membrane depolarization. The dye-loaded E. coli cells suspended in HEPES-glucose buffer ([…]) were incubated with different concentration of α-MSH and its analogues for 2 minutes and further diluted in the same buffer and plated on LB agar plates. The plates were further incubated at 37 °C for 16 h. Next day the colonies were counted.^1 The experiment was performed on two different days and the representative values (mean ± SE) are shown in graph. (⁎, P < 0.05; ⁎⁎, P < 0.01, compared to that of control at the same concentration).

The test system of experiment [5] is E. coli cells. The experiment in a line: Membrane permeabilization assay (PI uptake, flow cytometry). It counts as cell-based, Escherichia coli. Particulars: span over rising peptide concentrations; 10^6 CFU/mL mid-log cells, PI 1.3 µg/mL, 37 °C, 1 h, flow cytometry; three independent days. The protocol: Membrane permeabilization of E. coli cells was determined via propidium iodide (PI) uptake assay through flow cytometry as described previously with slight modifications. Briefly, mid-log phase E. coli cells were adjusted to 10^6 CFU/mL in the HEPES-glucose buffer. Next, cells were incubated with propidium iodide (PI) at 1.3 µg/mL concentration for 30 min in the dark. After incubation, PI-loaded cells were treated with a range of peptide concentrations, i.e., 1 µM, 2 µM, 5 µM, and 10 µM, at 37 °C for 1 h, and PI fluorescence intensity was measured through Becton Dickinson (BD) FACS verse (San Jose, CA) flow cytometer using excitation at 544 nm and emission at 620 nm.
Figure S2: Histograms of E. coli cells treated with 2 µM concentration of α-MSH and its analogues and 1 µM concentration of polymyxin B for 1 h. Towards monitoring the membrane permeabilizations of E. coli cells, propidium iodide (PI) uptake assay through flow cytometry was performed using the previously standardized method with mild modifications ^2. Briefly, mid-log phase grown E. coli cells (10^6 CFU/mL) suspended in the HEPES-glucose buffer were incubated with propidium iodide (PI) at a concentration of 1.3 µg/mL for 30 min in dark. After incubation, PI loaded cells were treated with a range of peptide concentrations; 1 µM, 2 µM, 5 µM and 10 µM at 37 °C for 1 h, and PI fluorescence intensity was measured through Becton Dickinson (BD) FACS verse (San Jose, CA) flow cytometer using excitation at 544 nm and emission at 620 nm.
A general note: In flow cytometry, cells or beads pass a laser one at a time.

The subject of experiment [6] is LPS from E. coli O55:B5. The experiment in a line: LPS binding assay (BODIPY-TR-cadaverine displacement). Particulars: BC displacement, LPS 50 μg/mL, 5 µM BC, 50 mM Tris buffer pH 7.4, peptide 0.25 to 20 µM, Hill equation fit, mean Kd ± SD of two independent experiments, read-out: Kd (dissociation constant) with LPS. More on the design: species or system Escherichia coli. The method, then:
The binding of α-MSH and its analogues to LPS was checked using BODIPY-TR-cadaverine (BC) as a fluorescent probe[24],[42]. BC fluorescence decreases when bound to cell-free LPS and increases when it is freely accessible in solution. LPS (50 μg/mL) from E. coli O55:B5 (Sigma-Aldrich, India) was incubated with 5 µM of BC in 50 mM Tris buffer (pH 7.4) for 4 h. Next, 800 µL of this LPS-BC mixture was added to varying concentrations (0.25 µM to 20 µM) of the peptides in a quartz cuvette, and the BC fluorescence was measured on a spectrofluorimeter (Shimadzu RF-5301 PC) with excitation at 580 nm and emission at 620 nm. Each experiment was done in duplicate independently. Increase in fluorescence intensities with increase in concentration of peptides were plotted and the dissociation constant (Kd) was calculated from each individual data set and is presented as mean value ± SD using Igor Pro 6.36 (Y = Bmax × Xˆh/(Kdˆh + Xˆh); where X: concentration of peptide (µM), Y: fluorescence intensity (a.u.), h: Hill slope)[43]. The molecular mass of LPS was taken as 20,000 Da as described elsewhere, and its concentration was calculated accordingly.
Table S1: The dissociation constant (Kd) of α-MSH and its analogues with LPS. […]

[7] abbreviates: peptide 10 µM, 2 min of exposure.

For `CSCC[C@H](NC(=O)[C@H](CCCCN)NC(=O)[C@H](Cc1ccc(O)cc1)NC(=O)[C@H](CCCCN)NC(C)=O)C(=O)N[C@@H](CCC(=O)O)C(=O)N[C@@H](Cc1c[nH]cn1)C(=O)N[C@@H](Cc1ccccc1)C(=O)N[C@@H](CCCNC(=N)N)C(=O)N[C@@H](Cc1c[nH]c2ccccc12)C(=O)NCC(=O)N[C@@H](CCCCN)C(=O)N1CCC[C@H]1C(=O)N[C@H](C(N)=O)C(C)C` [KK-MSH], the “log reduction in cell viability” value is on record as 1.7 ± 0.4 log in experiment [1] (peptide 5 µM, 2 h); 2.6 ± 0.5 log in experiment [1] (peptide 10 µM, 2 h); 1.8 ± 0.05 log in experiment [2]. The “killing activity (decrease in cell viability), in words” value in experiment [1] was “very slight decrease in the cell viability”. Moreover, the “%NPN uptake” value in experiment [3] (peptide 1 μM, HEPES-glucose buffer, average of three independent days) was 6.8%; in experiment [3] (peptide 20 μM (highest concentration)) it was 37.7%. For the same compound, the “log reduction in cell viability of dye-loaded cells” value in experiment [4] (peptide 5 µM, 2 min exposure) came out at 0.5 log; in experiment [4] (setting [7]) it was 1.2 log.
In the case of `CSCC[C@H](NC(=O)[C@H](CO)NC(=O)[C@H](Cc1ccc(O)cc1)NC(=O)[C@H](CCCCN)NC(C)=O)C(=O)N[C@@H](CCC(=O)O)C(=O)N[C@@H](Cc1c[nH]cn1)C(=O)N[C@@H](Cc1ccccc1)C(=O)N[C@@H](CCCNC(=N)N)C(=O)N[C@@H](Cc1c[nH]c2ccccc12)C(=O)NCC(=O)N[C@@H](CCCCN)C(=O)N1CCC[C@H]1C(=O)N[C@H](C(N)=O)C(C)C` [K-MSH], the “log reduction in cell viability” value in experiment [1] (peptide 10 µM, 1 h) came to 1.9 ± 0.3 log; in experiment [2], 1.7 ± 0.3 log. For the same compound, the “killing activity (decrease in cell viability), in words” value in experiment [1] is reported as “very slight decrease in the cell viability”. Besides, the “change of killing activity at 5 µM against lower concentrations, in words” value in experiment [1] (peptide 5 µM) is on record as “marginal increase in activity”. Also, the “maximum NPN uptake” value in experiment [3] (over peptide concentrations from 1 to 20 μM) came to 16.2%. In addition, the “log reduction in cell viability of dye-loaded cells” value in experiment [4] (peptide 5 µM, 2 min exposure) is given as 0.7 log; in experiment [4] (setting [7]) it was 0.6 log. Further, in experiment [5], the PI positive cells is recorded as 21.8–26.5%.
For polymyxin B [reference compound], the Kd in experiment [6] was 2400 ± 840 nM.
